Experiment: gradient 5% acetonitrile 3 min, to 50% in 2 min, to 85% in 15 min, held 3 min, 100 µL/min
Settings: column: Zorbax Extend-C18 2.1 x 50 mm; eluents: water / acetonitrile, 0.1% formic acid
In short: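 The mobile phases were water and acetonitrile, each with 0.1% formic acid, pumped at 100 μL/min through a Zorbax Extend-C18 column (2.1 × 50 mm, 1.8 μm). Pure standards were injected as mixtures of ~100 molecules and detected by a quadrupole time-of-flight mass spectrometer in positive and negative ionization mode. Retention time came from computationally picked adduct peaks, each inspected by hand.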

Row | Compound | RP-LC retention time
1 | COC(=O)COC(=O)c1cn(-c2cccc(F)c2)c(=O)c2ccccc12 | 938 s
2 | COCCN1CCC(N2CCN(S(=O)(=O)c3ccc(F)cc3F)CC2)C1=O (stereo not drawn) | 570 s
3 | O=C1CC(c2noc(CCc3ccccc3)n2)CN1c1ccc(F)c(Cl)c1 (stereo not drawn) | 1050 s
4 | C=CCn1c(C)c(CC(=O)NCCOC)c(=O)n2nc(-c3ccccc3)nc12 | 673 s
5 | Cc1cc(C)cc(-n2c(SCC(=O)Nc3nc(C)cs3)nc3c(c2=O)SCC3)c1 | 825 s
6 | COc1ccccc1N1CCN(c2nnc(SC(C)C)s2)CC1 | 952 s
7 | O=C(CCC(=O)N1CC2CCCN2c2ccccc21)NCc1cccs1 (stereo not drawn) | 865 s
8 | COc1ccc(-c2nc3cnccn3c2Nc2ccccc2C)cc1OC | 793 s
9 | Cc1ccc(Cn2cccc2C(=O)C(=O)Nc2ccc3c(c2)OCCO3)cc1 | 1090 s
10 | CCCN(C)c1nccn2c(=O)n(CC(=O)Nc3ccc(F)cc3)nc12 | 806 s
11 | CC1Oc2ccc(S(=O)(=O)N3CCC(C(=O)NCc4ccco4)CC3)cc2NC1=O (stereo not drawn) | 722 s
12 | CN1c2cc(Cl)ccc2C(=O)NC12CCN(C(=O)NCc1cccc(F)c1)CC2 | 1010 s
13 | CCCCN(CC)C(=O)Cn1nc(Cc2ccncc2)c2ccccc2c1=O | 624 s
14 | CC(C)NC(=O)C1=CCN(C(=O)c2ccc(F)cc2)CC1 | 714 s
15 | COc1ccc(CNC(=O)Cc2cn(C)c3ncccc23)c(OC)c1 | 676 s
16 | O=C(NCCCN1CCN(C2CCCCC2)CC1)C1CCCN(C(=O)c2cccc(Cl)c2)C1 (stereo not drawn) | 584 s
17 | O=C(CCCN1C(=O)c2cccc3cccc(c23)C1=O)N1CCN(c2ncccn2)CC1 | 723 s
18 | CCc1nnc(-c2ccc3ccn(CC(=O)Nc4cc(C)ccn4)c3c2)o1 | 705 s
19 | O=C(NCC1CCN(Cc2ccsc2)CC1)Nc1ccc2c(c1)OCO2 | 554 s
20 | COc1ccc(NC(=O)N2CCN(c3ccc(=O)n(-c4ccc(C)cc4)n3)CC2)c(OC)c1 | 804 s
21 | Cc1ccc(NC(=O)CN2C(=O)CCCc3cc(S(=O)(=O)N4CCC(C)CC4)ccc32)cc1 | 976 s
22 | CC(NS(=O)(=O)c1ccc(Cl)c(-c2nnc(-c3ccccc3)o2)c1)C(=O)O (stereo not drawn) | 819 s

Row | Compound | RP-LC retention time
23 | Cc1ccc(-n2c(=O)n(CC(=O)Nc3ccc(C)cc3C)c3cccnc32)cc1 | 907 s
24 | CC(=O)c1cccc(S(=O)(=O)NCC2CCN(C(=O)c3cc4ccccc4o3)CC2)c1 | 781 s
25 | CCNc1nc(C)cc(N2CCN(S(=O)(=O)c3ccc(OC)cc3)CC2)n1 | 677 s
26 | CC(=O)c1ccc(NC(=O)CN2C(=O)NC3(CCCCC3)C2=O)cc1 | 717 s
27 | CCCN1CCN(CCCNC(=O)C(C)n2c3ccccc3c3cnn(C)c(=O)c32)CC1 (stereo not drawn) | 571 s
28 | Cc1cc(C(=O)N2CCN(c3ccc(-c4cccs4)nn3)CC2)no1 | 659 s
29 | CC(C)S(=O)(=O)c1cc2c(cc1NC(=O)c1ccccc1Br)n(C)c(=O)n2C | 822 s
30 | COC(=O)c1cnc(N2CCN(c3ccccc3)CC2)c2ccccc12 | 1160 s
31 | Cc1oc(-c2ccccc2)nc1CN(c1ccccc1)S(=O)(=O)c1cccs1 | 1150 s
32 | CCCCn1cc(S(=O)(=O)Nc2cccc(OC)c2)c2cccnc21 | 912 s
33 | COCc1noc(C2CCCCN2C(=O)c2cnccn2)n1 (stereo not drawn) | 596 s
34 | CC(C)C(=O)NCc1csc(C2CCCN(C(=O)c3cc(F)ccc3F)C2)n1 (stereo not drawn) | 730 s
35 | CCC1Oc2ccc(S(=O)(=O)N3CCC(C(=O)NCc4ccco4)CC3)cc2NC1=O (stereo not drawn) | 795 s
36 | Cc1ccc(C)c(N2CCN(C(=O)c3c(C)sc4ccn(C)c(=O)c34)CC2)c1 | 946 s
37 | O=S(=O)(c1ccccc1Cl)N1CCN(Cc2cccc(F)c2)C2(CCOCC2)C1 | 846 s
38 | Cc1nnc(N2CCCC(C(=O)NCc3cccc(F)c3)C2)c2nn(-c3ccc(Cl)cc3)c(C)c12 (stereo not drawn) | 757 s
39 | COc1cc(NC(=O)N2CCC(c3cnn(-c4ccccc4)c3)CC2)cc(OC)c1OC | 852 s
40 | Cc1ccc(CN2CCN(CC(=O)N3CCN(c4ccccn4)CC3)C(=O)C2=O)cc1 | 586 s
41 | O=C1CC(c2ccccc2)N1 (stereo not drawn) | 646 s
42 | COc1ccc(CN2CCc3nc(N4CCOCC4)ncc3C2)c(OC)c1OC | 597 s
43 | Cc1ccc2oc(-c3noc(C(=O)NCCC4=CCCCC4)n3)c(C)c2c1 | 1400 s
44 | CCc1ccccc1NC(=O)C1CCCN(S(=O)(=O)c2cn(C(C)C)cn2)C1 (stereo not drawn) | 782 s

Row | Compound | RP-LC retention time
45 | COc1cccc2nnc(NC(=O)CCC(=O)NCC(C)C)n12 | 587 s
46 | CCOc1ccc(CCNC(=O)C2CCCN(C(=O)c3cc(C)cc(C)c3)C2)cc1OCC (stereo not drawn) | 920 s
47 | CC(C)(C)C(=O)NC1CCN(C(=O)c2ccc(F)cc2)C1 (stereo not drawn) | 688 s
48 | CNC(=O)C1CN(S(=O)(=O)c2cccs2)CC12CCCCC2 (stereo not drawn) | 697 s
49 | O=C(NCCCN1CCCC1=O)c1ccc(-c2ccc(N3CCSCC3)nc2)cc1 | 619 s
50 | CS(=O)(=O)Nc1ccc(-c2noc(CNC(=O)Cc3ccc(Cl)cc3)n2)cc1 | 788 s
51 | CCn1c(N2CCC(C(=O)NCc3ccc4c(c3)OCO4)CC2)cc(=O)n(C)c1=O | 740 s
52 | CC1Oc2ccc(S(=O)(=O)N3CCC(C(=O)Nc4ccccc4F)CC3)cc2NC1=O (stereo not drawn) | 761 s
53 | CC(C)c1nc(NCc2ccc3c(c2)OCO3)ncc1C(=O)O | 844 s
54 | COc1ccc(-c2nc(Cn3cnc4nc5c(cc4c3=O)CCCC5)c(C)o2)c(OC)c1 | 845 s
55 | Cc1ccc2ncn(C3CCN(S(=O)(=O)c4ccc(C)c(C)c4)CC3)c(=O)c2c1 | 998 s
56 | Cc1ccc(-c2cc3c(N4CCCC(C(=O)NC5CC5)C4)nccn3n2)c(C)c1 (stereo not drawn) | 782 s
57 | COC(=O)c1ccc(NC(=O)c2sc(-c3cn(C)c4ncccc34)nc2C)cc1 | 1080 s
58 | O=C(Nc1cccc2cccnc12)C1COCC(=O)N1Cc1ccccc1 (stereo not drawn) | 777 s
59 | COCC(=O)N1CCCN(c2cc(=O)n(C(C)C)c(=O)n2C(C)C)CC1 | 678 s
60 | Cn1nc(-c2nc(C3CC3)no2)c2c1CCN(C(=O)c1ccc(F)c(F)c1)C2 | 831 s
61 | COCCn1c(SCc2nc(-c3ccccc3C)no2)nc2cc3c(cc2c1=O)OCO3 | 1120 s
62 | CN(C(=O)c1nc(N2CCSCC2)c2cnn(C)c2n1)c1cccc(Cl)c1 | 842 s
63 | COc1cc(NC(=O)Cn2ccnc2-c2ccnc(N3CCOCC3)c2)cc(OC)c1 | 625 s
64 | O=C(CN1CCN(Cc2ccc(F)cc2)C(=O)C1=O)N1CCN(Cc2ccccc2)CC1 | 603 s
65 | CCC(C(=O)Nc1cc(-c2cn3nc(OC)ccc3n2)ccc1F)c1ccccc1 (stereo not drawn) | 916 s
66 | COc1ccc(-c2cc(C(=O)Nc3ccc(F)c(F)c3)sn2)cc1 | 1180 s

Row | Compound | RP-LC retention time
67 | Cc1ccc(CNC(=O)c2ccc(CN3CCN(C4CCCC4)C(=O)C3=O)cc2)cc1C | 834 s
68 | COc1ccc(C(=O)NCCc2c[nH]c3ccc(F)cc23)cc1OC | 758 s
69 | CCc1cccc(NC(=O)C2CCCN(S(=O)(=O)c3c[nH]c(C(=O)N4CCCCCC4)c3)C2)c1 (stereo not drawn) | 911 s
70 | CCCNC(=O)c1cn(-c2cc(-c3nc(C)no3)ccn2)cn1 | 706 s
71 | COC(=O)c1ccc(NC(=O)C2(C)Oc3cccnc3N(C(C)C)C2=O)cc1 (stereo not drawn) | 991 s
72 | COc1ccc(-c2nc(-c3cn(-c4ccc(C)cc4)nn3)no2)cc1OC | 1050 s
73 | Cc1nc2cc(N3CCCC(C(=O)NCc4cccc(F)c4)C3)cnc2nc1C (stereo not drawn) | 735 s
74 | CC(=O)Nc1ccc(S(=O)(=O)N2CCC3(CC2)Nc2cc(F)ccc2-n2cccc23)cc1 | 967 s
75 | Cc1nc(-c2ccc(N3CCN(C(=O)c4ccoc4)CC3)nc2)sc1C | 738 s
76 | CCOC(=O)c1noc2ncnc(NC3CCN(Cc4ccccc4)CC3)c12 | 616 s
77 | Cc1ccccc1-c1nc(-c2ccc(-n3cccn3)nc2)no1 | 1310 s
78 | CCCCNC(=O)c1cc(NS(=O)(=O)c2c(C)cc(C)cc2C)cnc1N1CCNCC1 | 661 s
79 | CCNc1cc(N2CCCC(CCC(=O)NC(C)c3c(C)nn(C)c3C)C2)ncn1 (stereo not drawn) | 582 s
80 | O=C(Nc1ccc(F)cc1F)N1CCC(n2cnc3c(Cl)cccc3c2=O)CC1 | 806 s
81 | O=C(NC1CC1)C1CC(=O)N(c2ccc3c(c2)CCN3C(=O)C2CC2)C1 (stereo not drawn) | 630 s
82 | COc1ccc(Cl)cc1S(=O)(=O)NCCc1cn(CC(C)C)c2ncccc12 | 987 s
83 | CCC(C)NS(=O)(=O)c1ccc(-c2c(C)noc2C)cc1 (stereo not drawn) | 936 s
84 | COc1ccccc1CC(=O)Nc1ccc2c(c1)CCC(=O)N2C | 721 s
85 | COc1ccc(NC(=O)Cn2nc3c(N4CCSCC4)nccn3c2=O)c(OC)c1 | 797 s
86 | C=CCN1C(=O)COc2ccc(-c3csc(NC(=O)COC)n3)cc21 | 785 s
87 | O=C(NCC1CCN(C(=O)c2ccccc2F)CC1)c1ccccn1 | 667 s
88 | CN(C)C(=O)c1n[nH]c2c1CN(C(=O)c1ccc(F)cc1F)CC2 | 629 s
